Data on 2 molecules can be found in ChEMBL document CHEMBL5500360, “Discovery of N-(4-((6-(3,5- Dimethoxyphenyl)-9H-purine derivatives as irreversible covalent FGFR inhibitors” (Eur J Med Chem, 2024).

Calls of active or inactive are those of the source. The calls are words filed in the database; no cut-off is given here.

Data set [1] can be described thus: Metabolic stability in rat liver microsomes assessed as parent compound remaining at 1 uM measured after 15 mins by LC-MS/MS analysis. In kind it is ADME, Microsome. As to conditions: read-out: Stability.
Data set [2] is described as follows: Metabolic stability in mouse liver microsomes assessed as parent compound remaining at 1 uM measured after 5 mins by LC-MS/MS analysis. The note with it: read-out: Stability. It counts as ADME, Microsome. (Microsomes from liver hold many membrane-bound enzymes, among them those of drug oxidation.)
The nature of data set [3]: Metabolic stability in mouse liver microsomes assessed as half-life at 1 uM incubated for 45 mins by LC-MS/MS analysis. In kind it is ADME, Microsome.
A short description of data set [4]: Metabolic stability in rat liver microsomes assessed as parent compound remaining at 1 uM measured after 45 mins by LC-MS/MS analysis. In kind it is ADME, Microsome. As to conditions: read-out: Stability.
Data set [5] in a line: Metabolic stability in human liver microsomes assessed as intrinsic clearance at 1 uM incubated for 45 mins by LC-MS/MS analysis. In kind it is ADME, Microsome. As to conditions: read-out: CLH.
The nature of data set [6]: Metabolic stability in mouse liver microsomes assessed as intrinsic clearance at 1 uM incubated for 45 mins by LC-MS/MS analysis. It counts as ADME, Microsome. The note with it: read-out: CLH.
Data set [7] can be described thus: Metabolic stability in mouse liver microsomes assessed as parent compound remaining at 1 uM measured after 30 mins by LC-MS/MS analysis. In kind it is ADME, Microsome. The note with it: read-out: Stability.
The nature of data set [8]: Metabolic stability in mouse liver microsomes assessed as parent compound remaining at 1 uM measured after 15 mins by LC-MS/MS analysis. It counts as ADME, Microsome. As to conditions: read-out: Stability.
Data set [9] is described as follows: Metabolic stability in rat liver microsomes assessed as parent compound remaining at 1 uM measured after 30 mins by LC-MS/MS analysis. It counts as ADME, Microsome. The note with it: read-out: Stability.
A short description of data set [10]: Metabolic stability in rat liver microsomes assessed as parent compound remaining at 1 uM measured after 5 mins by LC-MS/MS analysis. The note with it: read-out: Stability. In kind it is ADME, Microsome.
The nature of data set [11]: Metabolic stability in rat liver microsomes assessed as half-life at 1 uM incubated for 45 mins by LC-MS/MS analysis. In kind it is ADME, Microsome.
A short description of data set [12]: Metabolic stability in human liver microsomes assessed as parent compound remaining at 1 uM measured after 5 mins by LC-MS/MS analysis. It counts as ADME, Microsome. The note with it: read-out: Stability.
Data set [13] in a line: Metabolic stability in mouse liver microsomes assessed as parent compound remaining at 1 uM measured after 45 mins by LC-MS/MS analysis. As to conditions: read-out: Stability. In kind it is ADME, Microsome.
Data set [14] is described as follows: Metabolic stability in human liver microsomes assessed as half-life at 1 uM incubated for 45 mins by LC-MS/MS analysis. It counts as ADME, Microsome.
A short description of data set [15]: Metabolic stability in human liver microsomes assessed as parent compound remaining at 1 uM measured after 15 mins by LC-MS/MS analysis. It counts as ADME, Microsome. The note with it: read-out: Stability.
Data set [16] in a line: Metabolic stability in human liver microsomes assessed as parent compound remaining at 1 uM measured after 30 mins by LC-MS/MS analysis. In kind it is ADME, Microsome. As to conditions: read-out: Stability.
Data set [17] is described as follows: Metabolic stability in rat liver microsomes assessed as intrinsic clearance at 1 uM incubated for 45 mins by LC-MS/MS analysis. It counts as ADME, Microsome. As to conditions: read-out: CLH.
Data set [18] in a line: Metabolic stability in human liver microsomes assessed as parent compound remaining at 1 uM measured after 45 mins by LC-MS/MS analysis. The note with it: read-out: Stability. In kind it is ADME, Microsome.
The test system of data set [19] is MDA-MB-231. Nature of the data set: cells. The note with it: Homo sapiens, MDA-MB-231, 72 h.
Data set [20] has as its system MDA-MB-231. The data set can be described thus: Cell cycle arrest in human MDA-MB-231 cells assessed as accumulation of S phase cells at 5 uM incubated for 24 hrs by […]PI staining based flow cytometric analysis (reference value: 41.29%). In kind it is functional. A general note: In flow cytometry, cells or beads pass a laser one at a time.
The subject of the next data set is HepG2. The data set can be described thus: cells. The note with it: Homo sapiens, HepG2, 72 h.
For the next data set, the system named is MDA-MB-435. Nature of the data set: cells. The note with it: Homo sapiens, MDA-MB-435, 72 h.
Data set [21] relates to MDA-MB-231. Nature of the data set: Induction of apoptosis in human MDA-MB-231 cells assessed as necrotic cells at 5 uM incubated for 24 hrs by Annexin V-FITC/PI staining based flow cytometric analysis (reference value: 0.063 %). In kind it is functional.
The test system of data set [22] is MDA-MB-231. Nature of the data set: Cell cycle arrest in human MDA-MB-231 cells assessed as accumulation of G0-G1 phase cells at 5 uM incubated for 24 hrs by […]PI staining based flow cytometric analysis (reference value: 41.83%). In kind it is functional.
The subject of data set [23] is MDA-MB-231. The data set can be described thus: Inhibition of cell migration in human MDA-MB-231 cells at 2.5 uM incubated for 12 hrs by cell scratch assay. In kind it is functional, cell-based.
The next data set in a line: in vitro. As to conditions: human, HUVEC cells.
The subject of data set [24] is MDA-MB-231. The data set can be described thus: Induction of apoptosis in human MDA-MB-231 cells assessed as late apoptotic cells at 5 uM incubated for 24 hrs by Annexin V-FITC/PI staining based flow cytometric analysis (reference value: 0.161 %). In kind it is functional.
Data set [25] relates to MDA-MB-231. The data set can be described thus: Induction of ROS production in human MDA-MB-231 cells at 5 uM incubated for 12 hrs by flow cytometry based confocal microscopic analysis. It counts as functional, cell-based.
The subject of data set [26] is MDA-MB-231. Nature of the data set: Antitumor activity against human MDA-MB-231 cells xenografted in female BALB/c athymic nude mouse assessed as tumor growth inhibition at 10 mg/kg, po administered once a day via gavage for 21 days relative to control. The note with it: MDA-MB-231, 504 h, time 21 day, read-out: TGI. In kind it is functional. In general terms: In xenograft studies the graft and the host belong to different species.

The next data set relates to KYSE-150 cell line. Nature of the data set: cells. As to conditions: Homo sapiens, KYSE-150, 72 h.
Data set [27] deals with MDA-MB-231. Nature of the data set: Induction of apoptosis in human MDA-MB-231 cells assessed as apoptotic cells at 5 uM incubated for 24 hrs by Annexin V-FITC/PI staining based flow cytometric analysis relative to control. It counts as functional.
The test system of data set [28] is MDA-MB-231. The data set can be described thus: Cell cycle arrest in human MDA-MB-231 cells assessed as accumulation of G2-M phase cells at 5 uM incubated for 24 hrs by […]PI staining based flow cytometric analysis (reference value: 16.88%). It counts as functional.
In data set [29] the test system is MDA-MB-231. The data set can be described thus: Induction of apoptosis in human MDA-MB-231 cells assessed as viable cells at 5 uM incubated for 24 hrs by Annexin V-FITC/PI staining based flow cytometric analysis (reference value: 99.645%). The note with it: read-out: Activity. In kind it is functional.
Data set [30] deals with MDA-MB-231. The data set can be described thus: Induction of apoptosis in human MDA-MB-231 cells assessed as early apoptotic cells at 5 uM incubated for 24 hrs by Annexin V-FITC/PI staining based flow cytometric analysis (reference value: 0.131 %). In kind it is functional.

For orientation: half-life means how long it takes for the measured level to halve. For orientation: IC50 means the concentration that gives 50% inhibition. Higher therefore signals lower potency.

Description for KYSE-150 cell line: Antiproliferative activity against human KYSE-150 cells assessed as inhibition of cell growth incubated for 72 hrs by MTT assay
Description for MDA-MB-435: Antiproliferative activity against human MDA-MB-435 cells assessed as inhibition of cell growth incubated for 72 hrs by MTT assay
Description for in vitro: Cytotoxicity against HUVEC cells assessed as inhibition of cell growth incubated for 72 hrs by MTT assay

In the case of `O=C(c1ccc(F)cc1)C1CCN(CCn2c(=O)[nH]c3ccccc3c2=O)CC1` [KETANSERIN], the remaining at 0.25 h, 1 µM is 48.5% in [1], 38.3% in data set [8] and 68.5% in data set [15]. In addition, the values for the remaining at 5 min, 1 µM in data set [2], in [10] and in data set [12] were 70.3%, 76.3% and 84.7%, respectively. The values for the half-life at 1 µM in [3], in [11] and in data set [14] were 9.35 min, 13.2 min and 28.6 min, respectively. The remaining at 0.75 h, 1 µM is 14.1% in data set [4], 8.57% in data set [13] and 45.9% in data set [18]. Also, the figures for the CLint scaled at 1 µM in [5], in [6] and in [17] were 60.8 mL/min/kg, 584 mL/min/kg and 188 mL/min/kg, respectively. Besides, the figures for the remaining at 0.5 h, 1 µM in data set [7], in data set [9] and in data set [16] were 18.3%, 24.5% and 55.1%, respectively.
On to `COc1cc(CCc2cc(NC(=O)c3ccc(N4C[C@@H](C)N[C@@H](C)C4)cc3)n[nH]2)cc(OC)c1` [FEXAGRATINIB], for which the half-maximal inhibitory concentration (IC50) with MDA-MB-231 [19] amounted to 7.19 µM; in the data set with HepG2, 3.13 µM; with MDA-MB-435, 21.6 µM; in the data set on KYSE-150 cell line, 8.92 µM. The Activity in the data set with MDA-MB-231 [20] is given as 26.31%; with MDA-MB-231 [21], 2.72%; in the data set on MDA-MB-231 [22], 58.92%; with MDA-MB-231 [24] it was 10.3%; in the data set on MDA-MB-231 [27], 37.3%; in the data set on MDA-MB-231 [28], 14.77%. In addition, in the data set on MDA-MB-231 [30], the Activity worked out at 29%. Besides, in the data set with MDA-MB-231 [23], the inhibition entry was “Active”. In “in vitro”, the midpoint of inhibition, the IC50 at 72 h, lay at 38 µM. Besides, the result in the data set with MDA-MB-231 [25] was Active. For the same molecule, the inhibition in vivo at 10 mg/kg with MDA-MB-231 [26] was determined as 52.6%. For the same molecule, the viability at 5 µM in the data set with MDA-MB-231 [29] worked out at 58%.
